{"source": "paper PMC3942691", "about": "“The Dipeptide Monoester Prodrugs of Floxuridine and Gemcitabine—Feasibility of Orally Administrable Nucleoside Analogs” (Pharmaceuticals, 2014)", "key": {"Caco-2 cell homogenates": {"tested_on": "Caco-2 cell homogenates", "test": "Enzymatic stability in Caco-2 cell homogenates", "assay_type": "in vitro ADME", "details": "500 µg/mL protein, 37 °C", "experimental": "(§1) Confluent Caco-2, Panc-1, and AsPC-1cells were rinsed twice with phosphate buffered saline (PBS). The cells were lysed with phosphate buffer (pH 7.4) by ultrasonication (Micro ultrasonic cell disrupter Model KT40, Kontes, Vineland, NJ, USA), and pelleted by centrifugation for 5 min at 1,000 × g. Protein amount was quantified with the Bio-Rad (Hercules, CA, USA) DC Protein Assay using bovine serum albumin as a standard. The amount of protein was adjusted to 500 µg/mL and hydrolysis reactions were carried out in 96-well plates (Corning). […] The filtrate was then analyzed via reverse-phase HPLC.\n(§2) The stability samples of prodrugs and their metabolites, and perfusion samples were determined on an Agilent HPLC system (Agilent Technologies, Santa Clara, CA, USA). […] Standard curves generated for each prodrug and their parent drug were utilized for quantitation of integrated area under peaks. […]\n(§3) The experiments concerning drug and their prodrug stability were performed at 37 °C in 0.01 N HCl, SIF (pH 6.0), and pH 7.4 phosphate buffer. […] Prodrug metabolites such as floxuridine, 5-fluorouracil (5-FU), gemcitabine, 2′-deoxy-2′,2′-difluorouridine, uracil, and cytosine were monitored along with prodrug disappearance in this experiment."}, "Panc-1 cell homogenates": {"tested_on": "Panc-1 cell homogenates", "test": "Enzymatic stability in Panc-1 cell homogenates", "assay_type": "in vitro ADME", "details": "500 µg/mL protein, 37 °C", "experimental": "Confluent Caco-2, Panc-1, and AsPC-1cells were rinsed twice with phosphate buffered saline (PBS). The cells were lysed with phosphate buffer (pH 7.4) by ultrasonication (Micro ultrasonic cell disrupter Model KT40, Kontes, Vineland, NJ, USA), and pelleted by centrifugation for 5 min at 1,000 × g. Protein amount was quantified with the Bio-Rad (Hercules, CA, USA) DC Protein Assay using bovine serum albumin as a standard. The amount of protein was adjusted to 500 µg/mL and hydrolysis reactions were carried out in 96-well plates (Corning). Caco-2, Panc-1, and AsPC-1 cell suspensions (250 µL) were placed in triplicate wells, the reactions were started with the addition of substrate, and cells were incubated at 37 °C for 120 min. At the desired time point, sample aliquots (35 µL) were removed and added to acetonitrile (ACN, 150 µL) with 0.1% TFA. The mixtures were filtered with a 0.45 µm filters at 1,000 × g for 10 min at 4 °C. The filtrate was then analyzed via reverse-phase HPLC.\nThe stability samples of prodrugs and their metabolites, and perfusion samples were determined on an Agilent HPLC system (Agilent Technologies, Santa Clara, CA, USA). The HPLC system consisted of Agilent pumps (1100 series), an Agilent autosampler (1200 series), and an Agilent UV-Vis detector (1100 series) controlled by Chemstation® 32 software (version B.01.03). Samples were resolved in an Agilent Eclipse Plus C18 reverse-phase column (3.5 µm, 4.6 × 75 mm) equipped with a guard column. The mobile phase consisted of 0.1% TFA/water (Solvent A) and 0.1% TFA/acetonitrile (Solvent B) with the solvent B gradient changing from 0%–56% at a rate of […] during a 15 min run for gemcitabine and gemcitabine prodrugs. Standard curves generated for each prodrug and their parent drug were utilized for quantitation of integrated area under peaks. The detection wavelength was 254 nm and spectra were acquired in the 220–380 nm wavelength range. The detection wavelength for phenol red was 430 nm.\nas §3"}, "AsPC-1 cell homogenates": {"tested_on": "AsPC-1 cell homogenates", "test": "Enzymatic stability in AsPC-1 cell homogenates", "assay_type": "in vitro ADME", "details": "500 µg/mL protein, 37 °C", "experimental": "as §1, §2, §3"}, "[1]": {"tested_on": "Caco-2, Panc-1, and AsPC-1 cell homogenates", "test": "Enzymatic stability compared across Caco-2, Panc-1 and AsPC-1 cell homogenates", "assay_type": "in vitro ADME", "experimental": "as §1\nThe experiments concerning drug and their prodrug stability were performed at 37 °C in 0.01 N HCl, SIF (pH 6.0), and pH 7.4 phosphate buffer. […] Prodrug metabolites such as floxuridine, 5-fluorouracil (5-FU), gemcitabine, 2′-deoxy-2′,2′-difluorouridine, uracil, and cytosine were monitored along with prodrug disappearance in this experiment. However, the mass balance could not be established because 5-FU, cytosine and uracil were metabolized even further and those metabolites could not be quantified by HPLC [11, 50]. The specific kinetic parameters in drug/prodrug metabolism could not be determined without the mass balance and the data of enzymatic activities and their expression levels because those metabolic activities were simultaneously taken place. […]"}, "[2]": {"test": "Enzymatic stability in Caco-2 cell homogenates", "assay_type": "in vitro ADME", "details": "human, Caco-2, pH 7.4; 500 µg/mL protein, 37 °C; read-out: Caco-2 cell homogenates t1/2", "experimental": "as §1, §2, §3"}, "[3]": {"test": "Enzymatic stability in AsPC-1 cell homogenates", "assay_type": "in vitro ADME", "details": "human, AsPC-1 cell homogenates, pH 7.4; 500 µg/mL protein, 37 °C; read-out: AsPC-1 cell homogenates t1/2", "experimental": "as §1, §2, §3"}, "AsPC-1 cells": {"tested_on": "AsPC-1 cells", "set-up": "method as in PMID 18652477", "details": "cited from earlier work"}}}
{"molecule": "2′,2′-difluoro-2′-deoxyuridine [Gemcitabine]", "values": [{"measurement": "Caco-2 cell homogenates t1/2", "setting": "Caco-2 cell homogenates", "result": "105.0 ± 6.1", "unit": "min"}, {"measurement": "Panc-1 cell homogenates t1/2", "setting": "Panc-1 cell homogenates", "result": ">120", "unit": "min"}, {"measurement": "AsPC-1 cell homogenates t1/2", "setting": "AsPC-1 cell homogenates", "result": "33.7 ± 14.5", "unit": "min"}, {"measurement": "degradation in AsPC-1 cells compared with Caco-2 and Panc-1 cells", "setting": "[1]", "result": "three- to four- times faster"}]}
{"molecule": "Nc1ccn(C2OC(COC(=O)C(Cc3ccc(O)cc3)NC(=O)C(N)Cc3ccccc3)C(O)C2(F)F)c(=O)n1", "note": "[5′-L-Phenylalanyl-L-tyrosyl-gemcitabine]", "values": [{"measurement": "half-life", "setting": "[2]", "result": "14.7 ± 4.4", "unit": "min"}, {"measurement": "half-life", "setting": "[3]", "result": "8.1 ± 0.6", "unit": "min"}]}
{"molecule": "O=c1[nH]c(=O)n([C@H]2C[C@H](O)[C@@H](CO)O2)cc1F", "note": "[Floxuridine, 5-fluoro-2′-deoxyuridine]", "values": [{"measurement": "degradation in AsPC-1 cells compared with Caco-2 and Panc-1 cells", "setting": "[1]", "result": "two- to six-times faster"}, {"measurement": "GI50", "setting": "AsPC-1 cells", "result": "22.9 ± 5.7", "unit": "mM"}]}
